In this test the test system is IL-23p19. In words: LPS Induced IL23p19 in THP-1 Cells (with IFNγ Primed) Assay. The class given is cell-based, human. Particulars: IFNγ (50 ng/mL) primed, 1 hour compound pre-incubation, LPS 1 ug/mL 18 hours, 10 pt, read-out: IL23-p19 ELISA, THP1-IFNy, LPS, 10 pt EC50. Here is the method:
LPS Induced IL23p19 in THP-1 Cells (with IFNγ Primed) Assay
Method THP-1 Cells Stimulation:
On day 1, 50K/well THP-1 cells were seeded and primed with IFNγ (50 ng/mL) in 384-well plates for about 18 hours in RPMI media with 10% FBS. […] 50 μL/well 2× compound was added to 50 μL/well THP-1 cells (with IFNγ primed) in duplicate in 384 well tissue culture plates. […] Day 3, after stimulation for 18 hours at 37° C., 5% CO2, the assay plate was centrifuged and 70 μL/well supernatant was harvested. IL-23p19 protein in 70 μL/well of supernatant was measured by sandwich ELISA, and 25 μl/well Cell Titer Glo reagent was added to the remaining cells to measure compound toxicity.
Human IL-23p19 Sandwich ELISA:
Maxisorp immuno ELISA plates were pre-coated with 25 μL/well of anti-IL-23p19 capture antibody (2.5 ug/mL) in PBS overnight at room temperature. After washing with 1×PBST, the plates were blocked using 100 μL/well of 1% BSA in PBS for 2 hours at room temperature. The plates were washed three times with 1×PBST and 70 μL/well supernatant were added. The plates were incubated at room temperature for 2 hours with shaking and washed three times with 1×PBST. 25 μL/well of biotin labeled anti-IL-12(p40/p70) detection antibody (100 ng/mL) in PBS with 1% BSA was added and the plates were incubated at room temperature for 2 hours with shaking. After washing three times with 1×PBST, 25 μL/well of streptavidin-HRP (1:200) in PBS with 1% BSA was added and the plates were incubated at room temperature for 20 minutes with shaking. The plates were washed three times with 1×PBST and 25 μL/well of Super Signal ELISA Pico Chemiluminescent Substrate were added. The plates were read with a luminometer, and the chemiluminescence values were entered into Athena (Rigel) for curve fitting, EC50 calculation, and database storage.
(In an ELISA, binding on a coated surface is turned into a signal by an enzyme label.)

Setting [1] is: Homo sapiens, THP-1, THP-1 cells.

Where a name gives a salt, the structure may show the parent alone. Read-outs that look alike come from different tables or passages of the source.

With `COCCn1cc(NC(=O)c2cccc(-c3ccncc3)n2)c(-c2ccccn2)n1` [Compound I-107, N-(1-(2-methoxyethyl)-3-(pyridin-2-yl)-1H-pyrazol-4-yl)-[2,4′-bipyridine]-6-carboxamide formate], the EC50 (in general, the concentration at which the effect is half-maximal) under setting [1] was determined as 3.58 µM.

`Cn1cc(NC(=O)c2cncc(-c3cnn(CC4CC4)c3)c2)c(-c2ccccn2)n1` [Compound I-109, 5-(1-(cyclopropylmethyl)-1H-pyrazol-4-yl)-N-(1-methyl-3-(pyridin-2-yl)-1H-pyrazol-4-yl)nicotinamide]: under setting [1], the EC50 stood at 10.8 µM.

With `Cn1cc(NC(=O)c2nccc(Nc3cn(C)nc3-c3ccccn3)n2)c(-c2ccccn2)n1` [Compound I-118, N-(1-methyl-3-(pyridin-2-yl)-1H-pyrazol-4-yl)-4-((1-methyl-3-(pyridin-2-yl)-1H-pyrazol-4-yl)amino)pyrimidine-2-carboxamide], the EC50 under setting [1] worked out at 130 µM.

For the compound `O=C(Nc1cn(C(CO)CO)nc1-c1ccccn1)c1cccc(-c2cccnc2)n1` [Compound I-125, N-(1-(1,3-dihydroxypropan-2-yl)-3-(pyridin-2-yl)-1H-pyrazol-4-yl)-[2,3′-bipyridine]-6-carboxamide], the EC50 under setting [1] stood at 3.92 µM.

On to `Cc1cncc(-c2cccc(C(=O)Nc3cn(C(CO)CO)nc3-c3ccccn3)n2)c1` [Compound I-126, N-(1-(1,3-dihydroxypropan-2-yl)-3-(pyridin-2-yl)-1H-pyrazol-4-yl)-5′-methyl-[2,3′-bipyridine]-6-carboxamide], for which the EC50 under setting [1] was 3.35 µM.

Regarding `O=C(Nc1cn(C(CO)CO)nc1-c1ccccn1)c1cccc(-c2cn[nH]c2)n1` [Compound I-127, N-(1-(1,3-dihydroxypropan-2-yl)-3-(pyridin-2-yl)-1H-pyrazol-4-yl)-6-(1H-pyrazol-4-yl)picolinamide], the EC50 under setting [1] worked out at 18.2 µM.

With `Cn1cc(NC(=O)c2nccc(Nc3cc[nH]n3)n2)c(-c2ccccn2)n1` [Compound I-128, 4-((1H-pyrazol-3-yl)amino)-N-(1-methyl-3-(pyridin-2-yl)-1H-pyrazol-4-yl)pyrimidine-2-carboxamide], the half-maximal effective concentration (EC50) under setting [1] turned out to be 24.2 µM.

`Cc1n[nH]cc1Nc1ccnc(C(=O)Nc2cn(C)nc2-c2ccccn2)n1` [Compound I-129, 4-((3-methyl-1H-pyrazol-4-yl)amino)-N-(1-methyl-3-(pyridin-2-yl)-1H-pyrazol-4-yl)pyrimidine-2-carboxamide]: the EC50 under setting [1] worked out at 72.9 µM.

For the compound `O=C(O)c1cncc(-c2cccc(C(=O)Nc3cn(C4COC4)nc3-c3ccccn3)n2)c1` [Compound I-135, 6-((1-(oxetan-3-yl)-3-(pyridin-2-yl)-1H-pyrazol-4-yl)carbamoyl)-[2,3′-bipyridine]-5′-carboxylic acid], the EC50 under setting [1] was 41.7 µM.

In the case of `COCCOCCn1cc(NC(=O)c2cccc(-c3ccncc3)n2)c(-c2ccccn2)n1` [Compound I-140, N-(1-(2-(2-methoxyethoxy)ethyl)-3-(pyridin-2-yl)-1H-pyrazol-4-yl)-[2,4′-bipyridine]-6-carboxamide formate], the EC50 under setting [1] is 10.9 µM.

For the compound `COCCOCCn1cc(NC(=O)c2cccc(-c3ccncc3F)n2)c(-c2ccccn2)n1` [Compound I-144, 3′-fluoro-N-(1-(2-(2-methoxyethoxy)ethyl)-3-(pyridin-2-yl)-1H-pyrazol-4-yl)-[2,4′-bipyridine]-6-carboxamide formate], the EC50 under setting [1] turned out to be 11.5 µM.

On to `COCCOCCn1cc(NC(=O)c2cccc(-c3ccncc3C)n2)c(-c2ccccn2)n1` [Compound I-145, N-(1-(2-(2-methoxyethoxy)ethyl)-3-(pyridin-2-yl)-1H-pyrazol-4-yl)-3′-methyl-[2,4′-bipyridine]-6-carboxamide formate], for which the EC50 under setting [1] was found to be 56.9 µM.

For the compound `Cn1cc(NC(=O)c2cccc(-c3ccnc(NCC4CC4)c3)n2)c(-c2ccccn2)n1` [Compound I-159, 2′-((cyclopropylmethyl)amino)-N-(1-methyl-3-(pyridin-2-yl)-1H-pyrazol-4-yl)-[2,4′-bipyridine]-6-carboxamide formate], the EC50 under setting [1] is 14.7 µM.

`Cn1cc(NC(=O)c2cccc(-c3ccncc3)n2)c(-c2ccccn2)n1` [Compound I-160, N-(1-methyl-3-(pyridin-2-yl)-1H-pyrazol-4-yl)-[2,4′-bipyridine]-6-carboxamide 2,2,2-trifluoroacetate]: the concentration for a half-maximal effect (EC50) under setting [1] is 150 µM.

Consider `O=C(Nc1cn(C2CCOCC2)nc1-c1ccccn1)c1cccc(-c2cn[nH]c2)n1` [Compound I-165, 6-(1H-pyrazol-4-yl)-N-(3-(pyridin-2-yl)-1-(tetrahydro-2H-pyran-4-yl)-1H-pyrazol-4-yl)picolinamide], for which the EC50 under setting [1] stood at 1.53 µM.

In the case of `COCCn1cc(NC(=O)c2cccc(-c3cncc(C)c3)n2)c(-c2ccccn2)n1` [Compound I-168, N-(1-(2-methoxyethyl)-3-(pyridin-2-yl)-1H-pyrazol-4-yl)-5′-methyl-[2,3′-bipyridine]-6-carboxamide], under setting [1], the concentration giving a half-maximal response (EC50) is 0.541 µM.

Regarding `Cc1cncc(-c2cccc(C(=O)Nc3cn(C)nc3-c3ccc(N4CCOCC4)cn3)n2)c1` [Compound I-176, 5′-methyl-N-(1-methyl-3-(5-morpholinopyridin-2-yl)-1H-pyrazol-4-yl)-[2,3′-bipyridine]-6-carboxamide dihydrochloride], under “THP-1 cells, dihydrochloride”, the EC50 was 27.9 µM.

Values taken from patent publication US10947216B2, “Amide compounds and method for making and using” (Rigel Pharmaceuticals, Inc., priority 2016, dated 2021).
